Measured values published in patent publication US20250134863A1, “MEDICAL AGENT FOR TREATING OR SUPPRESSING PROGRESSION OF AMYOTROPHIC LATERAL SCLEROSIS” (MITSUBISHI TANABE PHARMA CORPORATION, priority 2022, published 2025).
“And” between values parts separate entries of the source, which are not always exact repeats. Identical values can stand only once.

What was measured:
Format in all cases: in vivo, human
ALS patients [1] = experiment: Post-hoc statistical analysis 1: blood uric acid levels in 25% improvement and non-25% improvement groups
Experimental: (§1) The blood uric acid levels in the 16 trial, 17 trial, and 19 trial were measured values obtained using the uricase-peroxidase method.
In the present analysis, efficacy was analyzed for placebo patients who had completed the 24-week double-blind period (cycles 1 to 6) and had at least one data point in cycle 7. To estimate the percent change in ALSFRS-R slope for transition from placebo administration (baseline to 24 weeks) to edaravone administration (24 weeks 24 to 48 weeks), a random coefficient model was applied to all available ALSFRS-R score data during this period.
A 25% improvement group meets both of the following criteria:
(1) ALSFRS-R slope % change ≥+25% (this change is defined as a clinically significant improvement (Reference 5: Amyotroph Lateral Scler 2010; 11 (1-2): 178-180)) and (2) ALSFRS-R total score at the start of cycle 7 (24 weeks)>24 points (half of the 48-point ALSFRS-R total score) (this helps avoid floor effects related to the ALSFRS-R total score that could lead to false positives in the analysis).
These criteria were used to define a 25% improvement group and a non-25% improvement group. Using a mixed model for repeated measures, the changes in uric acid levels from the start of cycle 7 (24 weeks) to cycle 12 (48 weeks) were summarized for the 25% improvement group and the non-25% improvement group. The correlation between the change in uric acid levels from 24 weeks to 48 weeks and the ALSFRS-R slope percent change was descriptively summarized using the Wilcoxon test.

ALS patients [2] = experiment: Post-hoc statistical analysis 2: uric acid levels from baseline to cycle 12 (16, 17 and 19 trials)
Source text: After a 12-week observation period, patients whose ALSFRS-R total score decreased by 1 to 4 points during that period were considered eligible for the trial. In the 16 trial, eligible patients were randomly divided into an edaravone treatment group and a placebo administration group, and patients in each group received administration for 24 weeks (cycles 1 to 6). After completing the 24-week double-blind portion of the 16 trial, patients who received edaravone (E) were randomly assigned to the 17 trial, and during a 24-week double-blind extension period (cycles 7 to 12), edaravone treatment (EE group) or placebo administration (EP group) was performed. On the other hand, all patients from the placebo (P) administration group received edaravone treatment (PE group). All patients received open-label edaravone treatment for the next 12 weeks (cycles 13 to 15).
(§2) Edaravone was administered at a dose of 60 mg by intravenous infusion over 60 minutes, once daily. The infusion was given for 14 days in the first treatment cycle, and for 10 days out of the 14-day treatment period in all subsequent cycles. A 14-day drug holiday period was provided after each treatment cycle.
Similar to the 16 trial, after a 12-week observation period, patients in the 19 trial were randomly divided into an edaravone treatment group and a placebo administration group, and patients in each group received administration for 24 weeks (cycles 1 to 6). In the 19 trial, after the double-blind treatment period, all patients received open-label edaravone treatment for an additional 24 weeks (cycles 7 to 12). Therefore, the 19 trial included an EE group and a PE group.
as §1
In order to characterize the uric acid level and ALSFRS-R total score profiles at cycle 12, efficacy was analyzed in randomized ALS patients at the start of cycle 7 and randomized ALS patients who received the medical agent at least once after the start of cycle 7.
Descriptive statistics (number of subjects, mean, standard deviation, minimum, maximum) were used to summarize the changes in uric acid levels (mg/dL) and ALSFRS-R total scores from baseline to cycle 12 for the entire population and for the Edaravone treatment group as a subgroup defined by the median baseline uric acid level (4.8 mg/dL). The median baseline uric acid level for all patients (4.8 mg/dL) was derived using the entire edaravone population, including the EE, PE, and EP groups in the 16 trial, the 17 trial, and the 19 trial.

ALS patients [3] = experiment: MCI186-19 trial (19 trial), randomized double-blind placebo-controlled phase 3, edaravone injection, ALSFRS-R; details: edaravone group, placebo −7.50±0.66, p=0.0013
Source text: Clinical trials using edaravone injections include two-group phase 3 trials. In the first phase 3 trials [MCI186-16 trial (hereinafter referred to as the 16 trial) and MCI186-17 trial (hereinafter referred to as the 17 trial)], it was shown that edaravone was involved in suppressing decline in ALS function compared to placebo, as evaluated by an ALSFRS-R total score. A subgroup showing a significant therapeutic effect of Edaravone has been identified by the 16 trial, and an inclusion criterion for this subgroup is also used in designing a second major phase 3 trial, that is, a 19 trial (MCI186-19).
as §2
The MCI186-19 trial (hereinafter referred to as the 19 trial) was a randomized, double-blind, parallel-group, placebo-controlled trial. Details of the trial are as described in NCT01492686, Reference 3 (Lancet Neurol 2017; 16 (7): 505-512) and Reference 4 (Amyotroph Lateral Scler Frontotemporal Degener 2017; 18 (suppl 1): 55-63). […]

[4] = 25% improvement group, ALS severity grade 3 to 5
[5] = 25% improvement group, ALS severity grade 3 to 5, first change section of Table 3 (n=21)
[6] = 25% improvement group, ALS severity grade 3 to 5, second change section of Table 3 (n=18)
[7] = 25% improvement group, all severities
[8] = non-25% improvement group, ALS severity grade 3 to 5
[9] = non-25% improvement group, ALS severity grade 3 to 5, first change section of Table 3 (n=39)
[10] = non-25% improvement group, ALS severity grade 3 to 5, second change section of Table 3 (n=24)
[11] = non-25% improvement group, all severities
[12] = Subgroup with uric acid level baseline <4.8 mg/dL, EE group
[13] = Subgroup with uric acid level baseline <4.8 mg/dL, EP group
[14] = Subgroup with uric acid level baseline <4.8 mg/dL, PE group
[15] = Subgroup with uric acid level baseline ≥4.8 mg/dL, EE group
[16] = Subgroup with uric acid level baseline ≥4.8 mg/dL, EP group
[17] = Subgroup with uric acid level baseline ≥4.8 mg/dL, PE group

SMILES: CC1=NN(c2ccccc2)C(=O)C1 [edaravone, 3-methyl-1-phenyl-2-pyrazolin-5-one]
- Uric acid level at final administration of Cycle 7, Mean (SD) (ALS patients [1]; [4]): 4.65 (1.49) mg/dL
- Uric acid level at final administration of Cycle 12, Mean (SD) (ALS patients [1]; [4]): 4.61 (1.48) mg/dL
- Uric acid change from start of Cycle 7 to final administration of Cycle 12, LS mean (SE) (ALS patients [1]; [5]): −0.37 (0.24) mg/dL
- Uric acid change from start of Cycle 7 to final administration of Cycle 12, Mean (SD) (ALS patients [1]; [5]): 0.05 (0.47) mg/dL
- Uric acid change from start of Cycle 7 to final administration of Cycle 12, LS mean (SE) (ALS patients [1]; [6]): −0.42 (0.24) mg/dL
- Uric acid change from start of Cycle 7 to final administration of Cycle 12, Mean (SD) (ALS patients [1]; [6]): 0.04 (0.60) mg/dL
- Uric acid change from start of Cycle 7 to final administration of Cycle 7, LS mean (SE) (ALS patients [1]; [7]): −0.16 mg/dL and −0.16 (0.15) mg/dL
- Uric acid change from start of Cycle 7 to final administration of Cycle 7, Mean (SD) (ALS patients [1]; [7]): 0.05 mg/dL and 0.05 (0.49) mg/dL
- Uric acid change from start of Cycle 7 to final administration of Cycle 12, LS mean (SE) (ALS patients [1]; [7]): −0.28 mg/dL and −0.28 (0.15) mg/dL
- Uric acid change from start of Cycle 7 to final administration of Cycle 12, Mean (SD) (ALS patients [1]; [7]): −0.04 mg/dL and −0.04 (0.68) mg/dL
- Uric acid level at final administration of Cycle 12, Mean (SD) (ALS patients [1]; [7]): 4.51 (1.43) mg/dL
- Uric acid level at final administration of Cycle 7, Mean (SD) (ALS patients [1]; 25% improvement group, all severities, 2 weeks after starting edaravone): 4.63 (1.45) mg/dL
- Uric acid change from start of Cycle 7 to final administration of Cycle 12, LSMD (SE) between 25% improvement group and non-25% improvement group (ALS patients [1]; ALS severity grade 3 to 5, first change section of Table 3, p=0.1701): 0.24 (0.18) mg/dL
- Uric acid change from start of Cycle 7 to final administration of Cycle 12, LSMD (SE) between 25% improvement group and non-25% improvement group (ALS patients [1]; ALS severity grade 3 to 5, second change section of Table 3, p=0.0044): 0.55 (0.19) mg/dL
- Uric acid change from start of Cycle 7 to final administration of Cycle 12, LSMD (SE) between 25% improvement group and non-25% improvement group (ALS patients [1]; all severities, p=0.0252): 0.28 mg/dL and 0.28 (0.12) mg/dL
- Uric acid change from start of Cycle 7 to final administration of Cycle 7, LSMD (SE) between 25% improvement group and non-25% improvement group (ALS patients [1]; all severities, p=0.0726): 0.21 mg/dL and 0.21 (0.12) mg/dL
- Uric acid level at final administration of Cycle 7, Mean (SD) (ALS patients [1]; [8]): 4.31 (1.10) mg/dL
- Uric acid level at final administration of Cycle 12, Mean (SD) (ALS patients [1]; [8]): 4.18 (1.00) mg/dL
- Uric acid change from start of Cycle 7 to final administration of Cycle 12, LS mean (SE) (ALS patients [1]; [9]): −0.61 (0.21) mg/dL
- Uric acid change from start of Cycle 7 to final administration of Cycle 12, Mean (SD) (ALS patients [1]; [9]): −0.22 (0.60) mg/dL
- Uric acid change from start of Cycle 7 to final administration of Cycle 12, LS mean (SE) (ALS patients [1]; [10]): −0.98 (0.22) mg/dL
- Uric acid change from start of Cycle 7 to final administration of Cycle 12, Mean (SD) (ALS patients [1]; [10]): −0.40 (1.02) mg/dL
- Uric acid change from start of Cycle 7 to final administration of Cycle 7, LS mean (SE) (ALS patients [1]; [11]): −0.37 mg/dL and −0.37 (0.12) mg/dL
- Uric acid change from start of Cycle 7 to final administration of Cycle 7, Mean (SD) (ALS patients [1]; [11]): −0.14 mg/dL and −0.14 (0.52) mg/dL
- Uric acid change from start of Cycle 7 to final administration of Cycle 12, LS mean (SE) (ALS patients [1]; [11]): −0.56 mg/dL and −0.56 (0.12) mg/dL
- Uric acid change from start of Cycle 7 to final administration of Cycle 12, Mean (SD) (ALS patients [1]; [11]): -0.22 mg/dL and −0.22 (0.81) mg/dL
- Uric acid level at final administration of Cycle 7, Mean (SD) (ALS patients [1]; [11]): 4.46 (1.29) mg/dL
- Uric acid level at final administration of Cycle 12, Mean (SD) (ALS patients [1]; [11]): 4.48 (1.29) mg/dL
- Uric acid level change from BL to cycle 12, Mean (SD) (ALS patients [2]; Overall, EE group): -0.25 mg/dL
- Uric acid level change from BL to cycle 12, Mean (SD) (ALS patients [2]; Overall, EE group, listed as Edaravone): −0.25 (0.86) mg/dL
- Uric acid level change from BL to cycle 12, Mean (SD) (ALS patients [2]; Overall, EP group): -0.22 mg/dL
- Uric acid level change from BL to cycle 12, Mean (SD) (ALS patients [2]; Overall, EP group, listed as Edaravone): −0.22 (0.77) mg/dL
- Uric acid level at Cycle 12, Mean (SD) (ALS patients [2]; Overall, Edaravone-Edaravone (EE) group): 4.4 (1.36) mg/dL
- Uric acid level at Cycle 12, Mean (SD) (ALS patients [2]; Overall, Edaravone-Placebo (EP) group): 4.9 (1.20) mg/dL
- Uric acid level change from BL to cycle 12, Mean (SD) (ALS patients [2]; Overall, PE group): -0.37 mg/dL
- Uric acid level change from BL to cycle 12, Mean (SD) (ALS patients [2]; Overall, PE group, listed as Edaravone): −0.37 (0.86) mg/dL
- Uric acid level at Cycle 12, Mean (SD) (ALS patients [2]; Overall, Placebo-Edaravone (PE) group): 4.5 (1.32) mg/dL
- Uric acid level at Cycle 12, Mean (SD) (ALS patients [2]; [12]): 3.6 (0.85) mg/dL
- Uric acid level change from BL to cycle 12, Mean (SD) (ALS patients [2]; [12]): −0.10 (0.69) mg/dL
- Uric acid level at Cycle 12, Mean (SD) (ALS patients [2]; [13]): 4.1 (0.93) mg/dL
- Uric acid level change from BL to cycle 12, Mean (SD) (ALS patients [2]; [13]): 0.15 (0.64) mg/dL
- Uric acid level at Cycle 12, Mean (SD) (ALS patients [2]; [14]): 3.6 (0.95) mg/dL
- Uric acid level change from BL to cycle 12, Mean (SD) (ALS patients [2]; [14]): 0.00 (0.71) mg/dL
- Uric acid level at Cycle 12, Mean (SD) (ALS patients [2]; [15]): 5.4 (1.21) mg/dL
- Uric acid level change from BL to cycle 12, Mean (SD) (ALS patients [2]; [15]): -0.4 mg/dL
- Uric acid level change from BL to cycle 12, Mean (SD) (ALS patients [2]; Subgroup with uric acid level baseline ≥4.8 mg/dL, EE group, listed as Edaravone): −0.41 (1.01) mg/dL
- Uric acid level at Cycle 12, Mean (SD) (ALS patients [2]; [16]): 5.5 (1.04) mg/dL
- Uric acid level change from BL to cycle 12, Mean (SD) (ALS patients [2]; [16]): -0.48 mg/dL
- Uric acid level change from BL to cycle 12, Mean (SD) (ALS patients [2]; Subgroup with uric acid level baseline ≥4.8 mg/dL, EP group, listed as Edaravone): −0.48 (0.77) mg/dL
- Uric acid level at Cycle 12, Mean (SD) (ALS patients [2]; [17]): 5.2 (1.17) mg/dL
- Uric acid level change from BL to cycle 12, Mean (SD) (ALS patients [2]; [17]): -0.68 mg/dL
- Uric acid level change from BL to cycle 12, Mean (SD) (ALS patients [2]; Subgroup with uric acid level baseline ≥4.8 mg/dL, PE group, listed as Edaravone): −0.68 (0.86) mg/dL
- LS mean±standard error of the change in ALSFRS-R from baseline to 24 weeks (ALS patients [3]): −5.01±0.64
